Reference: US20070275911A1, “Targeted Drug-Formaldehyde Conjugates and Methods of Making and Using the Same” (priority 2003, published 2007)
Where two headings read alike, the source gives them in different places.

Assays:
MCF-7 cells [1] = experiment: Uptake and release by flow cytometry; type: cell-based, human; conditions: for drug uptake (DOX fluorophore): MCF-7, 500 nM, up to 1 h
Procedure: Uptake and release of DOX, DOXSF, and DOX-TEG-TAM: The uptake and release of DOX-TEG-TAM in breast cancer cells relative to DOX and untargeted DOXSF was performed as described with modifications. Breast cancer cells in log phase growth were dissociated with trypsin-EDTA, counted, resuspended in media at 1.5×10^5 cells/mL, and plated into six well plates (450,000 cells/well) and allowed to adhere overnight. The cells were treated with 0.5 μM DOX, DOXSF, or DOX-TEG-TAM for various amounts of time (20 min, 40 min, and 60 min). Drug treatment was accomplished by addition of 30 μL of 100× drug solution (50 μM) to 3 mL of media which was mixed and immediately added to the cells. For each time point, the media was removed, cells were trypsinized, and trypsinization was quenched with 3 mL phenol red-free RPMI 1640 media (no serum) at 4° C. Cells were pelleted by centrifugation at 300 g for 5 min at 10° C. The supernatant was decanted and the cells were re-suspended in 1 mL serum- and phenol red-free RPMI 1640 media and placed on ice.
For drug retention samples, the cells were treated for 1 h with 0.5 μM DOX, DOXSF, or DOX-TEG-TAM. Following drug treatment, the media was removed and replaced with 3 mL fresh, 37° C., full (containing serum and phenol red indicator) cell media and the cells were incubated for various times (0.5 h, 1 h, 3 h, and 6 h). Following the allotted release times, the cells were prepared as described above. Drug treatment was performed such that all cell samples would be prepared within 2 h.
The extent of drug uptake and retention was measured by flow cytometry. Cells were analyzed with excitation at 488 nm (15 mW Ar ion laser), with emission monitored between 570 and 600 nm. Instrument settings were optimized for each cell line and held constant for all experiments; 10,000 cells were analyzed for anthracycline fluorescence. The data are presented as the mean fluorescence for each condition with the background, drug-free cell fluorescence subtracted.

MCF-7 cells [2] = experiment: Breast cancer cell growth inhibition, 4 h treatment
Procedure: (§1) Breast cancer cell growth inhibition: The ER-targeted DOX-formaldehyde conjugates, 11a-c, were evaluated against four breast cancer cell lines that differ in terms of estrogen receptor and multidrug resistance expression. MCF-7 cells are human breast adenocarcinoma cells that express estrogen receptor at a level of 195,000 sites/cell. MCF-7/Adr cells are an ER-negative, doxorubicin-resistant variant of the parent MCF-7 that express the multidrug resistance (MDR) phenotype. MDA-MB-231 and MDA-MB-435 are ER-negative human breast adenocarcinoma and ductal carcinoma cells, respectively. All cytotoxins were formulated as 100× solutions in DMSO/1% AcOH and delivered to cells as 1% DMSO (0.01% AcOH) in cell culture medium. In all experiments cell treatment lasted 4 h.
(§2) In Vitro cellular growth inhibition experiments: The IC50 for the targeted formaldehyde conjugates and all control compounds were performed as previously described with minor modifications. All compounds were solubilized in dimethylsulfoxide containing 1% v/v acetic acid. The concentrations of all 100× DMSO/1% AcOH drug solutions was determined spectrophotometrically by absorbance at 480 nm (ε=[…]). […] For every experiment each drug level and controls were performed in hexuplicate; each experiment was performed in at least duplicate. Error bars represent one standard deviation about the mean for the six wells per lane measured for each drug concentration.

MDA-MB-231 = experiment: as above
Procedure: as §1, §2

[3] = test system: PC-3 prostate cancer cells; experiment: Cytotoxicity, crystal violet colony assay (Example 1); type: cell-based; conditions: for IC50: PC-3, 4 h treatment, read-out: IC50 cancer cell growth inhibition
[4] = molecular target: T1, ανβ3 integrin present on viable MDA-MB-435 cells (Homo sapiens, UniProt P05106+P06756); experiment: Vitronectin cell adhesion (competition) assay; type: cell-based; conditions: MDA-MB-435 cell binding to vitronectin, 500 μM Mn2+; read-out: IC50 for inhibition of cell binding
T1 construct: endogenous in cells
Source text: The data are presented as the mean fluorescence for each condition with the background, drug-free cell fluorescence subtracted.

MCF-7 = experiment: Cytotoxicity, crystal violet colony assay (Example 1); type: cell-based, human; conditions: for IC50: MCF-7, 4 h treatment, read-out: IC50 cancer cell growth inhibition
Procedure: (§3) This cell suspension was dispensed in 200 μL aliquots into 96-well tissue culture plates. Plates were then incubated for 24 h at 37° C. in a humidified atmosphere of 5% CO2 and 95% air. The medium was replaced with 180 μL of growth medium prior to addition of the prodrug. Doxsaliform was dissolved in DMSO containing 1% glacial acetic acid at concentrations ranging from 1 mM to 10 mM and sterile-filtered through a 0.45 μm nylon centrifuge filter. The concentration was then corrected by measuring the solution absorbance at 480 nm (ε=11 500 L/(mol·cm). Serial dilutions (1:10) were made in sterile DMSO to yield seven solutions of decreasing drug concentration at 100× the respective working concentrations. The resulting solutions were individually diluted 1:10 in RPMI 1640; 20 μL of the resulting 10× solution was immediately added to the appropriate lane of cells. Additionally, two lanes were treated with 20 μL growth medium containing 10% sterile DMSO and one lane was treated with 200 μL of 1.5 M Tris buffer. The cells were incubated at 37° C. for 4 h, at which time the drug solutions were replaced with 200 μL of fresh growth medium. […] The extent of colony formation was determined using a crystal violet staining assay.
(§4) The biological activities of several of the N-Mannich base derivatives were determined by their in vitro cytotoxicity against MCF-7 and MCF-7/ADR human breast cancer derived cell lines. While MCF-7 cells are sensitive to doxorubicin, the MCF-7/ADR cell line is an MCF-7 derivative which is characterized by its marked resistance to doxorubicin.

MCF-7/ADR = experiment: as above; type: cell-based, human; conditions: for IC50: 4 h treatment, read-out: IC50 cancer cell growth inhibition
Procedure: as §3, §4

SMILES	drug uptake (DOX fluorophore) (MCF-7 cells [1])	uptake relative to MDA-MB-435 cells (MCF-7 cells [1]; MCF-7, 1 h, 500 nM)	fluorophore retention (MCF-7 cells [1]; MCF-7, drug release after 6 h)	IC50 (MCF-7 cells [2]; MCF-7 (ER/AEBS/MDR +/+/−), 4 h treatment, listed as DOX-TEG-TAM)	IC50 (MDA-MB-231; MDA-MB-231 (−/+/−), 4 h treatment, listed as DOX-TEG-TAM)	IC50 [3]	DOX/doxsaliform ([3]; PC-3, fold increase in cytotoxicity, 4 h drug treatment)	fold less cytotoxic than 11a-c (MCF-7 cells [2]; MCF-7)	IC50 (MCF-7 cells [2]; MCF-7 (ER/AEBS/MDR +/+/−), 4 h treatment)	fold less cytotoxic than 11a-c (MDA-MB-231; MDA-MB-231)	IC50 (MDA-MB-231; MDA-MB-231 (−/+/−), 4 h treatment)	IC50 [4]	IC50 (MCF-7)	DOX/doxsaliform (MCF-7; MCF-7, fold increase in cytotoxicity, 4 h drug treatment)	IC50 (MCF-7/ADR)	DOX/doxsaliform (MCF-7/ADR; fold increase in cytotoxicity, 4 h drug treatment)	IC50 (MCF-7 cells [2]; Homo sapiens, MCF7, 4 h)	IC50 (MDA-MB-231; Homo sapiens, MDA-MB-231, 4 h)	IC50 (MCF-7; Homo sapiens, MCF7)	IC50 (MCF-7/ADR; Homo sapiens, NCI/ADR-RES)
CC/C(=C(/c1ccc(O)cc1)c1ccc(OCCN(C)CCOCCOCCO/N=C/c2ccc(O)c(C(=O)NCN[C@H]3C[C@H](O[C@H]4C[C@](O)(C(=O)CO)Cc5c(O)c6c(c(O)c54)C(=O)c4c(OC)cccc4C6=O)O[C@@H](C)[C@H]3O)c2)cc1)c1ccccc1 [11c, E/Z-N-(2-Hydroxy-5-{[2-(2-{2-[(2-{4-[1-(4-hydroxy-phenyl)-2-phenyl-but-1-enyl]-phenoxy}-ethyl)-methyl-amino]-ethoxy}-ethoxy)-ethoxyimino]-methyl}-benzamide)-doxorubicin]	25 RFU	about 25%	highest level of doxorubicin fluorophore retention	40 ± 6 nM	30 ± 5 nM															
COc1cccc2c1C(=O)c1c(O)c3c(c(O)c1C2=O)C[C@@](O)(C(=O)CO)C[C@@H]3O[C@H]1C[C@H](NCNC(=O)c2ccccc2O)[C@H](O)[C@H](C)O1 [doxsaliform, N-(2-Hydroxybenzamido-methyl)-doxorubicin]	16 RFU					80 nM	4	2-3 fold	70 ± 5 nM	2-3 fold	80 ± 9 nM	> 10000 nM	80 nM	4	800 nM	10				
COc1cccc2c1C(=O)c1c(O)c3c(c(O)c1C2=O)C[C@@](O)(C(=O)CO)C[C@@H]3O[C@H]1C[C@H](N)[C@H](O)[C@H](C)O1 [doxorubicin, reference compound]	5 RFU					300 nM						> 10000 nM					200 ± 26 nM	300 ± 33 nM	300 nM	8000 nM
